System: articular cartilage of the rabbit knee joint (both femoral condyles), ACLT model
Assay: MRI evaluation of articular cartilage damage in the anterior cruciate ligament transection (ACLT) model using ^17O-labeled water
Type: in vivo, Japanese white rabbits
Description: An ACLT model was created using 14-week-old male Japanese white rabbits to induce cartilage damage in the knee joint. The rabbits were anesthetized intravenously with pentobarbital (30 mg/kg) and ketamine (50 mg/kg), followed by inhalation anesthesia with isoflurane (1 to 4%) for maintenance anesthesia. The anterior surface of the knee joint on the operative side was shaved, was disinfected with povidone-iodine, and then an analgesic (buprenorphine 0.02 mg/kg) was subcutaneously administered by injection. Skin incision of about 5 cm was placed on the medial side of the patella, and the joint capsule was incised in a similar position. The patella was dislocated laterally, and the knee joint was deeply flexed to expose the anterior cruciate ligament of the femoral intercondylar part, which was separated using a No. 11 scalpel. After washing the inside of the joint with a physiological saline solution, the joint capsule and the skin were sutured using 3-0 nylon thread. Postoperatively, euthanasia was performed if wound infection was observed or in the case of an inability to stand.
It has been reported that in the ACLT model, degeneration of cartilage surface begins at 4 weeks postoperatively and occurs in the entire cartilage layer from 8 weeks postoperatively (Makoto Yoshioka et al. Characterization of a model of osteoarthritis in the rabbit knee. Osteoarthritis and Cartilage, 1996, 4 (2): 87-98), and thus five rabbits were slaughtered and euthanized with pentobarbital (200 mg/kg) each at 4 weeks and 8 weeks postoperatively, and cartilage damage was evaluated by MRI and macroscopically and histologically.
MRI Imaging Using a 3T-MRI apparatus (MAGNETOM Prisma, Siemens), imaging of the rabbit knee joint on the operative side was performed. The affected rabbit limb was disarticulated at the thigh and was fixed at the knee joint extension to avoid the influence of body movement during imaging. A 24G Surflo needle was inserted from the anterior surface of the knee joint through the patellar tendon and was indwelled in the joint. […]

## ^17O-labeled water
Immediately after administration (fourth imaging), calculated from average T2-weighted signal values in each ROI, 4 weeks postoperatively
  change over time in ^17O concentration in ROI 1 and ROI 2 (damaged cartilage region): showed an increase in the ^17O concentration
Representative case 4 weeks postoperatively, about 11 minutes after administration (sixth imaging), 0.5 ml saline containing 20-mol % ^17O-labeled water into knee joint of disarticulated limb
  ^17O concentration (^17O map calculated from signal values of T2-weighted image): higher in the region where cartilage damage was observed
With administration of ^17O-labeled water, calculated from average T2-weighted signal values in each ROI, 4 weeks postoperatively
  change over time in ^17O concentration in ROI 3 and ROI 4 (normal cartilage region): showed no tendency of an increase in the ^17O concentration
